Assay results taken from US5837516A, “Subtilisin variants capable of cleaving substrates containing basic residues” (Genentech, Inc., priority 1995, dated 1998).
Residue numbers refer to the chain shown, from its start. Residues, ends and D or L forms follow the SMILES beside them.

Experiments:
subtilisin = target: T1, subtilisin (Bacillus amyloliquefaciens, UniProt P00782); settings: Estell et al. (1986) Science 233:659-663; cited from earlier work
T1 sequence (P00782 108-382): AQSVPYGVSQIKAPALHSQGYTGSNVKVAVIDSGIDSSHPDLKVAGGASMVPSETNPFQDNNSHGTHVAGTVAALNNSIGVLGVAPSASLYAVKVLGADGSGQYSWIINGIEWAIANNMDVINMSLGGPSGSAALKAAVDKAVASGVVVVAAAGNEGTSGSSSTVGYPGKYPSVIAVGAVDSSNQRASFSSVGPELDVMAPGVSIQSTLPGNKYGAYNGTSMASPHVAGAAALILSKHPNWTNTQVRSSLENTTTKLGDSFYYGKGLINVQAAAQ

[1] = target: T2, subtilisin BPN' variant N62D/Y104D/G166D (SEQ ID NO: 75) (Bacillus amyloliquefaciens, UniProt P00782, G273D/N169D/Y211D); assay: Kinetic analysis, hydrolysis of succinyl-tetrapeptide-pNA substrates; assay type: biochemical; settings: relative to succinyl-RAKR-pNA
T2 construct: the mature enzyme +1 to +275; made in house; host or cells: Bacillus subtilis BG2036 (protease-deficient), secreted
T2 sequence (P00782 108-382 N169D/Y211D/G273D): T1 sequence (P00782 108-382) with N62D, Y104D, G166D
Protocol: The mature N62D/Y104D/G166D variant was purified and analyzed for its ability to hydrolyze several tetrapeptide-pNA substrates.
Kinetic analysis of WT, N62D/G166D, and N62D/Y104D/G166D subtilisin BPN'
Subtilisins were assayed by measuring the initial rates of hydrolysis of p-nitroanilide tetrapeptide substrates in 0.4 mL 20 mM Tris-Cl pH 8.2, 4% (v/v) dimethyl sulfoxide at (25±0.2)° C. as described previously (Estell, D. A., Graycar, T. P., Miller, J. V., Powers, D. B., Burnier, J. P., Ng, P. G. and Wells, J. A. (1986)Science 233:659-663). Enzyme concentrations (E)0 were determined spectrophotometrically using E280 nm 0.1%=1.17 (Matsubara, H.; Kasper, C B.; Brown, D. M.; and Smith, E. L. (1965)J. Biol. Chem.,240:1125-1130.), and were typically 5-50 nM in reactions. Initial rates were determined for nine to twelve different substrate concentrations over the range of 0.001-2.0 mM. Plots of initial rates (v) versus substrate concentration (S) were fitted to the Michaelis-Menton equation, [formula] to determine the kinetic constants kcat and Km (Fersht, A. in "Enzyme Structure and Mechanism", Second edition, Freeman and Co., N.Y.) using the program Kaleidagraph (Synergy Software, Reading, Pa.).

C[C@H](NC(=O)CCC(=O)O)C(=O)N[C@@H](C)C(=O)N1CCC[C@H]1C(=O)N[C@@H](Cc1ccccc1)C(=O)Nc1ccc([N+](=O)[O-])cc1 [succinyl-AAPF-pNA, N-succinyl-alanine-alanine-proline-phenylalanyl-p-nitroanalide] (HELM PEPTIDE1{[O=C(O)CCC(=O)[*:2]].A.A.P.F.[O=[N+]([O-])c1ccc(N[*:1])cc1]}$$$$V2.0)
kcat /Km ratio (subtilisin): 300000 M⁻¹ s⁻¹
catalytic efficiency (kcat/Km), fold less efficiently hydrolyzed than succinyl-RAKR-pNA [1]: 6×10^4 fold
